Consider four compounds from US20230256039A1, “COMPOSITIONS AND METHODS TO INCREASE PRODUCTION OF HYDROXYTYROSOL” (priority 2022, published 2023).

The test system of assay [1] is Lactobacillus pentosus strain OL79. The assay is described as follows: Minimum inhibitory concentration (MIC) antibiotic susceptibility of strain OL79. It is filed as cell-based. As to conditions: MIC of antibiotic against strain OL79 versus EFSA cutoff.
The test system is the same in assay [2]. As to conditions: MIC cutoff values for Lactobacillus pentosus strain OL79; cited from earlier work.

For the compound Gentamycin, the Susceptibility result in assay [1] was “sensitive”. In addition, in assay [2], the “EFSA Break Point” value is 16 mg/L.

Consider `CC[C@H]1OC(=O)[C@H](C)[C@@H](O[C@H]2C[C@@](C)(OC)[C@@H](O)[C@H](C)O2)[C@H](C)[C@@H](O[C@@H]2O[C@H](C)C[C@H](N(C)C)[C@H]2O)[C@](C)(O)C[C@@H](C)C(=O)[C@H](C)[C@@H](O)[C@]1(C)O` [Erythromycin], for which the Susceptibility entry in assay [1] is listed as “sensitive”. The “EFSA Break Point” value in assay [2] is listed as 1 mg/L.

Consider `O=C(N[C@H](CO)[C@H](O)c1ccc([N+](=O)[O-])cc1)C(Cl)Cl` [Chloramphenicol], for which the Susceptibility entry in assay [1] was “sensitive”. Moreover, the “EFSA Break Point” value in assay [2] is reported as 8 mg/L.

With `CC1(C)S[C@@H]2[C@H](NC(=O)[C@H](N)c3ccccc3)C(=O)N2[C@H]1C(=O)O` [Ampicillin], in assay [1], the Susceptibility entry is listed as “sensitive”. Moreover, in assay [2], the “EFSA Break Point” value is 2 mg/L.
